The supplement of paper PMC7017272
± gives the standard deviation of the averaged measurements.

Experiments:
UT-SCC-40 = assay: maximal % inhibition of viability relative to DMSO; higher = stronger effect; conditions: treatment time: 3 days
Protocol: (§1)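 HNSCC cell lines (500 cells/well, 384-well) were cultured on plastic, on top of (2D) or embedded (3D) in Matrigel or human leiomyoma matrix Myogel (500 ug/mL; Myogel 3D mixed with rat collagen I). Cells were treated for 3 days with 5 ten-fold concentrations of each drug, and viability was read by CellTiter-Glo. Viability was normalised to DMSO and benzethonium chloride controls and fitted with the FIMM DSRT pipeline to give IC50 (nM), maximal % inhibition and DSS. Suffixes _1/_2/_3 are replicates. Only inhibition-mode (IC50) fits are kept.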

UT-SCC-42B = assay: as above; conditions: treatment time: 3 days
Protocol: as §1

UT-SCC-8 = assay: as above; conditions: treatment time: 3 days
Protocol: as §1

UT-SCC-73 [1] = assay: as above; conditions: treatment time: 3 days
Protocol: as §1

UT-SCC-81 = assay: as above; conditions: treatment time: 3 days
Protocol: as §1

UT-SCC-44 [2] = assay: as above; conditions: treatment time: 3 days
Protocol: as §1

UT-SCC-24B [3] = assay: as above; conditions: treatment time: 3 days
Protocol: as §1

UT-SCC-42A [4] = assay: as above; conditions: treatment time: 3 days
Protocol: as §1

UT-SCC-73 [5] = assay: relative IC50 (midpoint of the fitted curve; maximal inhibition may be below 50%); higher = less potent; conditions: culture condition: embedded in Matrigel; treatment time: 3 days
In short: (§2)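 Three growth formats were used for HPV-negative HNSCC cell lines in 384-well plates at 500 cells/well: bare plastic, wells coated with Matrigel or Myogel (500 µg/mL), and embedding in Matrigel or Myogel plus rat collagen I. Compounds were added at five 10-fold concentrations, and after 3 days CellTiter-Glo 2.0 luminescence was recorded and normalised to vehicle (0.1% DMSO) and cell-killing control wells. IC50, maximal inhibition and drug sensitivity score came from percent-inhibition dose–response fitting in the FIMM pipeline.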

UT-SCC-44 [6] = assay: as above; conditions: treatment time: 3 days
In short: as §2

UT-SCC-106A = assay: as above; conditions: treatment time: 3 days
In short: as §2

UT-SCC-24B [7] = assay: as above; conditions: treatment time: 3 days
In short: as §2

UT-SCC-28 = assay: as above; conditions: culture condition: on top of Matrigel; treatment time: 3 days
In short: as §2

UT-SCC-42A [8] = assay: as above; conditions: culture condition: embedded in Matrigel; treatment time: 3 days
In short: as §2

UT-SCC-14 = assay: as above; conditions: treatment time: 3 days
In short: as §2

[9] = culture condition: embedded in Matrigel
[10] = culture condition: embedded in Myogel + collagen I
[11] = culture condition: on top of Matrigel
[12] = culture condition: on top of Myogel
[13] = culture condition: plastic 2D (no matrix)

Q: For `COc1ccc(-c2cc3c(C)nc(N)nc3n([C@H]3CC[C@H](OCCO)CC3)c2=O)cn1`, which “maximal % inhibition of viability” value (UT-SCC-40; [9]) is on record?
A: 88.6 ± 7.3%

Q: And the “maximal % inhibition of viability” value (UT-SCC-40; [10])?
A: 74 ± 12%

Q: What about the “maximal % inhibition of viability” value (UT-SCC-40; [11]) of the same molecule?
A: 85.1 ± 7.9%

Q: What about the “maximal % inhibition of viability” value (UT-SCC-40; [12]) of the same molecule?
A: 64.1 ± 17%

Q: And the “maximal % inhibition of viability” value (UT-SCC-40; [13])?
A: 68 ± 15%

Q: And the “maximal % inhibition of viability” value (UT-SCC-42B; [9])?
A: 63.8 ± 11%

Q: What about the “maximal % inhibition of viability” value (UT-SCC-42B; [11]) of the same molecule?
A: 31.5 ± 7%

Q: And the “maximal % inhibition of viability” value (UT-SCC-42B; [12])?
A: 18.5 ± 13%

Q: What about the “maximal % inhibition of viability” value (UT-SCC-42B; [13]) of the same molecule?
A: 21.6 ± 12%

Q: And the “maximal % inhibition of viability” value (UT-SCC-8; [9])?
A: 91.8 ± 9%

Q: What about the “maximal % inhibition of viability” value (UT-SCC-8; [10]) of the same molecule?
A: 71.3 ± 21%

Q: What about the “maximal % inhibition of viability” value (UT-SCC-8; [11]) of the same molecule?
A: 82.1 ± 19%

Q: And the “maximal % inhibition of viability” value (UT-SCC-8; [12])?
A: 78.7 ± 14%

Q: And the “maximal % inhibition of viability” value (UT-SCC-8; [13])?
A: 84 ± 14%

Q: And the “maximal % inhibition of viability” value (UT-SCC-73 [1]; [9])?
A: 87.9 ± 5%

Q: What about the “maximal % inhibition of viability” value (UT-SCC-73 [1]; [10]) of the same molecule?
A: 79.9 ± 16%

Q: And the “maximal % inhibition of viability” value (UT-SCC-73 [1]; [11])?
A: 82.7 ± 12%

Q: And the “maximal % inhibition of viability” value (UT-SCC-73 [1]; [12])?
A: 80 ± 14%

Q: What about the “maximal % inhibition of viability” value (UT-SCC-73 [1]; [13]) of the same molecule?
A: 85.4 ± 6.6%

Q: And the “maximal % inhibition of viability” value (UT-SCC-81; [9])?
A: 94 ± 4.5%

Q: What about the “maximal % inhibition of viability” value (UT-SCC-81; [10]) of the same molecule?
A: 77.7 ± 13%

Q: And the “maximal % inhibition of viability” value (UT-SCC-81; [11])?
A: 89.7 ± 4.7%

Q: And the “maximal % inhibition of viability” value (UT-SCC-81; [12])?
A: 79.7 ± 8.8%

Q: And the “maximal % inhibition of viability” value (UT-SCC-81; [13])?
A: 81.7 ± 7.7%

Q: And the “maximal % inhibition of viability” value (UT-SCC-44 [2]; [9])?
A: 45.9 ± 6.3%

Q: And the “maximal % inhibition of viability” value (UT-SCC-44 [2]; [10])?
A: 40.2 ± 19%

Q: And the “maximal % inhibition of viability” value (UT-SCC-44 [2]; [11])?
A: 44.7 ± 10%

Q: What about the “maximal % inhibition of viability” value (UT-SCC-44 [2]; [12]) of the same molecule?
A: 43 ± 11%

Q: What about the “maximal % inhibition of viability” value (UT-SCC-44 [2]; [13]) of the same molecule?
A: 43.2 ± 15%

Q: And the “maximal % inhibition of viability” value (UT-SCC-24B [3]; [9])?
A: 99.6 ± 0.2%

Q: And the “maximal % inhibition of viability” value (UT-SCC-24B [3]; [10])?
A: 98.7 ± 0.36%

Q: What about the “maximal % inhibition of viability” value (UT-SCC-24B [3]; [11]) of the same molecule?
A: 99.57 ± 0.67%

Q: What about the “maximal % inhibition of viability” value (UT-SCC-24B [3]; [12]) of the same molecule?
A: 99 ± 1%

Q: And the “maximal % inhibition of viability” value (UT-SCC-24B [3]; [13])?
A: 99.73 ± 0.46%

Q: And the “maximal % inhibition of viability” value (UT-SCC-42A [4]; [9])?
A: 71.4 ± 9.7%

Q: What about the “maximal % inhibition of viability” value (UT-SCC-42A [4]; [10]) of the same molecule?
A: 62.5 ± 12%

Q: And the “maximal % inhibition of viability” value (UT-SCC-42A [4]; [11])?
A: 72.1 ± 7.3%

Q: What about the “maximal % inhibition of viability” value (UT-SCC-42A [4]; [12]) of the same molecule?
A: 63.3 ± 12%

Q: What about the “maximal % inhibition of viability” value (UT-SCC-42A [4]; [13]) of the same molecule?
A: 72.5 ± 6.5%

Q: And the “relative IC50” value (UT-SCC-73 [5])?
A: 272 nM

Q: What about the “relative IC50” value (UT-SCC-44 [6]; [9]) of the same molecule?
A: 78.9 nM

Q: What about the “relative IC50” value (UT-SCC-44 [6]; [12]) of the same molecule?
A: 805 nM

Q: What about the “relative IC50” value (UT-SCC-106A; [9]) of the same molecule?
A: 98.9 nM

Q: And the “relative IC50” value (UT-SCC-106A; [13])?
A: 193 nM

Q: What about the “relative IC50” value (UT-SCC-24B [7]; [10]) of the same molecule?
A: 163 nM

Q: What about the “relative IC50” value (UT-SCC-24B [7]; [11]) of the same molecule?
A: 363 nM

Q: What about the “relative IC50” value (UT-SCC-24B [7]; [12]) of the same molecule?
A: 562 nM

Q: And the “relative IC50” value (UT-SCC-24B [7]; [13])?
A: 337 nM

Q: And the “relative IC50” value (UT-SCC-28)?
A: 118 nM

Q: And the “relative IC50” value (UT-SCC-42A [8])?
A: 1810 nM

Q: And the “relative IC50” value (UT-SCC-14; [12])?
A: 543 nM

Q: And the “relative IC50” value (UT-SCC-14; [13])?
A: 741 nM
